These results are taken from paper PMC9094701, “Multiple-Allele MHC Class II Epitope Engineering by a Molecular Dynamics-Based Evolution Protocol” (Frontiers in Immunology, 2022).

One assay concerns IFNγ-producing cells. Put plainly: IFNγ ELISpot of splenocytes from immunized mice. In kind it is in vivo, C57BL/6 mice. To be noted: for Experimental rank: rank from the ex vivo experiments; for specific IFNγ-producing cells: C57BL/6 mice, two s.c. doses of 50 μg peptide with AddaVax, splenocytes 15 days after last dose, restimulated with the same peptide 18 h, ELISpot, mean.
Assay [1] deals with MHC II alleles DRB1*01:01, DRB1*03:01, DRB1*04:01 and DRB1*15:01. The assay is described as follows: Multiple-allele REVEAL score. In kind it is binding, human. As to conditions: average of the scores of each allele; Figure 4A. The procedure: The 18 designed candidates and the additional controls were synthesized and analysed using the ProImmune REVEAL® MHC-peptide binding assay to determine their level of binding to the MHC II alleles DRB1*01:01, DRB1*03:01, DRB1*04:01 and DRB1*15:01. A multiple-allele score was measured to evaluate if the peptides improved toward multiple alleles ( Figure 4A ). Of the 18 peptides, the peptide […] could not be synthesized by the Prospector PEPscreen® technology. […] None of the peptides, including the controls, were able to trigger a signal for the allele DRB1*03:01 (see Figure 4A ). […]
A gold-standard method of rate binding experiments against the MHC II alleles was performed with the Proimmune REVEAL® binding assay. The method uses antibody-labelled peptides that emit a signal if native conformations of the complexes are detected. […]
For the single-allele binding optimization phase, 17 peptides selected were assayed together with the controls against the DRB1*01:01 allele. For the multiple-allele engineering phase, 18 P. vivax engineered epitopes were evaluated for the MHC II alleles DRB1*01:01, DRB1*03:01, DRB1*04:01 and DRB1*15:01. A multiple-allele score was calculated by averaging the scores of each allele, and by weighting each allele based on the their frequencies in the world population. […]

The target in assay [2] is MHC II (HLA) allele DRB1*01:01 (Homo sapiens, UniProt P01903+P01911, A100R/D57E/F55L/F60I/F76Y/I96L/L162R/M171V/P40L/Q125E/R42F/V115G/Y59C). Put plainly: ProImmune REVEAL MHC-peptide binding assay. To be noted: score 0-100 by comparison with a control T-cell epitope, 0 and 24 hours, Figure 2E.
The mark [3] stands for this setting: Influenza sequences and PADRE, Table S11.

With AKFVAAWTLKAAA [reference compound], the Experimental rank in the assay on IFNγ-producing cells (setting [3]) turned out to be 1.
For DYDVVYLKPLAGMYK [reference compound], the “specific IFNγ-producing cells” value in the assay with IFNγ-producing cells was determined as 295 SFU/10^6 cells. For the same sequence, in the assay with IFNγ-producing cells (P. vivax sequences, Table S10), the Experimental rank was found to be 1.
Turning to DYDVVYWKPLAGIYK, in the assay with IFNγ-producing cells, the “specific IFNγ-producing cells” value worked out at 228 SFU/10^6 cells. Moreover, in the assay with IFNγ-producing cells (P. vivax sequences, Table S10), the Experimental rank came out at 2.
Consider DYTVVYLKPLAGYDH, for which, in assay [1], the “Multiple-allele REVEAL score, in words” value was “superior to the PADRE epitope”. For the same sequence, the “specific IFNγ-producing cells” value in the assay on IFNγ-producing cells was 127 SFU/10^6 cells. The same sequence registered an Experimental rank in the assay on IFNγ-producing cells (P. vivax sequences, Table S10) of 4.
Regarding DYTVVYLKPLAGYDN, in the assay on IFNγ-producing cells, the “specific IFNγ-producing cells” value turned out to be 54 SFU/10^6 cells. Also, the Experimental rank in the assay with IFNγ-producing cells (P. vivax sequences, Table S10) is 5.
As for VYDVVYLKPLAGCYK, in the assay on IFNγ-producing cells, the “specific IFNγ-producing cells” value stood at 145 SFU/10^6 cells. In the assay with IFNγ-producing cells (P. vivax sequences, Table S10), this sequence had an Experimental rank of 3.
For “YPKYVKQNTLKLAT [Influenza A virus peptide from the Hemagglutinin antigen, reference compound]”, in the assay on IFNγ-producing cells, the “specific IFNγ-producing cells” value turned out to be 463 SFU/10^6 cells. For the same sequence, the Experimental rank in the assay with IFNγ-producing cells (setting [3]) turned out to be 3.
For the sequence YSKYKKQNTLKAAT, in assay [2], the “REVEAL binding score, performance in words” value was “much superior to the original peptide sequence, and even to the PADRE control”. Moreover, the “specific IFNγ-producing cells” value in the assay with IFNγ-producing cells turned out to be 473 SFU/10^6 cells. The same sequence gave an Experimental rank in the assay with IFNγ-producing cells (setting [3]) of 2.
